Columns and labels:
[1] = test system: Rattus norvegicus; assay: Anti-inflammatory activity in Rattus norvegicus Wistar (rat) assessed as inhibition of carrageenan-induced paw edema at dose molecularly equivalent to 20 mg/kg of ibuprofen administered as po after 3 hr relative to ibuprofen; type: functional
[2] = test system: Mus musculus; assay: Analgesic activity in Mus musculus Swiss albino (mouse) assessed as protection against acetic acid-induced writhing effect at 20 mg/kg, po after 3 hr relative to control; type: functional
[3] = test system: Rattus norvegicus; assay: Gastrointestinal toxicity in Rattus norvegicus Wistar (rat) assessed as ulcer index at dose molecularly equivalent to 60 mg/kg of ibuprofen administered as po; type: organism-based; set-up: dose 60 mg/kg, route oral; conditions: in vivo
[4] = test system: Rattus norvegicus; assay: Gastrointestinal toxicity in Rattus norvegicus Wistar (rat) assessed as ulcer index at 60 mg/kg, po; type: organism-based; set-up: dose 60 mg/kg, route oral; conditions: in vivo
[5] = test system: Rattus norvegicus; assay: Anti-inflammatory activity in Rattus norvegicus Wistar (rat) assessed as inhibition of carrageenan-induced paw edema at 20 mg/kg, po after 3 hr relative to control; type: functional

Work on `COc1cc(/C=C/C(=O)c2ccc3c(c2)CN(c2ccc(C)cc2)CO3)cc(OC)c1OC` yielded an inhibition in vivo [1] of 56.5%.

With `Cc1ccc(N2COc3ccc(C(=O)/C=C/c4ccc(Cl)cc4)cc3C2)cc1` the inhibition in vivo [1] was 63.4%.

`Cc1ccc(N2COc3ccc(C(=O)/C=C/c4ccc(Cl)cc4Cl)cc3C2)cc1` gave an inhibition in vivo [1] of 71.9%, an Activity [2] of 55.47% and a UI [3] of 0.17.

Compound `COc1ccc(N2COc3ccc(C(=O)/C=C/c4ccccc4Cl)cc3C2)cc1` has an inhibition in vivo [1] of 63.4%.

`COc1ccc(/C=C/C(=O)c2ccc3c(c2)CN(c2ccc(OC)cc2)CO3)cc1` gave an inhibition in vivo [1] of 61.2%.

Compound `COc1ccc(N2COc3ccc(C(=O)/C=C/c4ccccc4O)cc3C2)cc1` has an inhibition in vivo [1] of 55.7%.

In the case of `COc1ccc(N2COc3ccc(C(=O)/C=C/c4cc(OC)c(OC)c(OC)c4)cc3C2)cc1`, the inhibition in vivo [1] is reported as 62.2%.

Work on `COc1ccc(N2COc3ccc(C(=O)/C=C/c4ccc(Cl)cc4)cc3C2)cc1` yielded an inhibition in vivo [1] of 67.4%, an Activity [2] of 52.22% and a UI [3] of 0.25.

For `COc1ccc(N2COc3ccc(C(=O)/C=C/c4ccc(Cl)cc4Cl)cc3C2)cc1`, the inhibition in vivo [1] was 74.9%, the Activity [2] was 57.38% and the UI [3] was 0.08.

Compound `Cc1ccc(N2COc3ccc(C(=O)/C=C/c4ccccc4Cl)cc3C2)cc1` has an inhibition in vivo [1] of 60.4%.

`COc1ccc(/C=C/C(=O)c2ccc3c(c2)CN(c2ccc(C)cc2)CO3)cc1` was tested, and the inhibition in vivo [1] was 70.4%, the Activity [2] was 54.27% and the UI [3] was 0.17.

With `Cc1ccc(N2COc3ccc(C(=O)/C=C/c4ccccc4O)cc3C2)cc1` the inhibition in vivo [1] was 51%.

For `CC(C)Cc1ccc(C(C)C(=O)O)cc1` (stereo not drawn) [IBUPROFEN], the UI [4] was 1, the Activity [2] was 63.06% and the inhibition in vivo at 20 mg/kg [5] was 82.3%.

Reference: ChEMBL document CHEMBL3046542, “Synthesis of some new 3,4-dihydro-2H-1,3-benzoxazines under microwave irradiation in solvent-free conditions and their biological activity” (Med Chem Res, 2011)
